From US20240360114A1 (SIRONAX LTD., priority 2021, published 2024)

system: HT-1080 cells; test: HT-1080 cell viability assay (ferroptosis induced by RSL3, Cell Titer-Glo); format: cell-based; conditions: Homo sapiens, HT-1080, 20 h, ferroptosis inducer RSL3, 20 hours, ferroptosis inhibitory activity, Table 2
How it was run: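 EC50 fitted by sigmoidal dose-response regression on luminescent viability data normalized to untreated cells. Compounds ran as a 10-point, 3-fold series from 1.1 μM alongside RSL3 for 20 hours, after overnight seeding.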

**Q.** For `NC1CCC(Nc2ccc3cc(N4CCC(C(F)(F)F)CC4)cnc3c2)CC1` (stereo not drawn) [Compound 572, N1-(3-(4-(trifluoromethyl)piperidin-1-yl)quinolin-7-yl)cyclohexane-1,4-diamine], which EC50 is on record?
**A.** 0.1 to 100 nM

**Q.** How did the EC50 turn out when `CN(C)C1CCC(Nc2ccc(N3CCC(C(F)(F)F)CC3)cc2)CC1` (stereo not drawn) [Compound 8, N1,N1-dimethyl-N4-(4-(4-(trifluoromethyl)piperidin-1-yl)phenyl)cyclohexane-1,4-diamine] was run?
**A.** 0.1 to 100 nM

**Q.** With `CCC(C)(C)c1ccc(NC2CCC(C)(N)CC2)cc1` (stereo not drawn) [Compound 172, 1-methyl-N4-(4-(tert-pentyl)phenyl)cyclohexane-1,4-diamine] as the molecule, how does the EC50 read?
**A.** 0.1 to 100 nM

**Q.** For `CC(C)(C)c1ccc(NCCc2cnc[nH]2)cc1` [Compound 177, N-(2-(1H-imidazol-5-yl)ethyl)-4-(tert-butyl)aniline], which EC50 is on record?
**A.** 1000 to 10000 nM

**Q.** For `NC1CCC(Nc2ccc3c(c2)CCCC3)CC1` (stereo not drawn) [Compound 236, N1-(5,6,7,8-tetrahydronaphthalen-2-yl)cyclohexane-1,4-diamine], which EC50 is on record?
**A.** 0.1 to 100 nM

**Q.** For `CN[C@H]1CC[C@H](CNc2ccc(N3CC(C)OC(C)C3)cc2)CC1` (stereo partly drawn) [Compound 420, 4-(2,6-dimethylmorpholino)-N-(((1r,4r)-4-(methylamino)cyclohexyl)methyl)aniline], which EC50 is on record?
**A.** 0.1 to 100 nM

**Q.** For `NCC1CCC(Nc2ccc(N3CCC(C(F)(F)F)CC3)cc2)CC1` (stereo not drawn) [Compound 3, N-(4-(aminomethyl)cyclohexyl)-4-(4-(trifluoromethyl)piperidin-1-yl)aniline], which EC50 is on record?
**A.** 0.1 to 100 nM

**Q.** For `Cc1nc(N2CCC(C(F)(F)F)CC2)ccc1NC1CCC(CNC(=O)C2CNC(=O)C2)CC1` (stereo not drawn) [Compound 377, N-((4-((2-methyl-6-(4-(trifluoromethyl)piperidin-1-yl)pyridin-3-yl)amino)cyclohexyl)methyl)-5-oxopyrrolidine-3-carboxamide], which EC50 is on record?
**A.** 0.1 to 100 nM

**Q.** For `NC1CC2(C1)CC(Nc1cnc(N3CCC(C(F)(F)F)CC3)nc1)C2` (stereo not drawn) [Compound 359, N2-(2-(4-(trifluoromethyl)piperidin-1-yl)pyrimidin-5-yl)spiro[3.3]heptane-2,6-diamine], which EC50 is on record?
**A.** 0.1 to 100 nM

**Q.** With `Cc1nc(N2CC(C)SC(C)C2)ccc1NC1CC2(CC(N)C2)C1` (stereo not drawn) [Compound 568, N2-(6-(2,6-dimethylthiomorpholino)-2-methylpyridin-3-yl)spiro[3.3]heptane-2,6-diamine] as the molecule, how does the EC50 read?
**A.** 0.1 to 100 nM

**Q.** With `Cc1nc(NCC(F)(F)F)ccc1NC1CC2(CC(N)C2)C1` (stereo not drawn) [Compound 557, N3-(6-aminospiro [3.3]heptan-2-yl)-6-methyl-N2-(2,2,2-trifluoroethyl)pyridine-2,5-diamine] as the molecule, how does the EC50 read?
**A.** 0.1 to 100 nM

**Q.** For `CC(C)C1CCN(c2ncc(NC3CC(CN)C3)cn2)CC1` (stereo not drawn) [Compound 49, N-(3-(aminomethyl)cyclobutyl)-2-(4-isopropylpiperidin-1-yl)pyrimidin-5-amine], which EC50 is on record?
**A.** 0.1 to 100 nM

**Q.** `CC1CCC(Nc2ccc(N3CCC(C(F)(F)F)CC3)cc2)CC1` (stereo not drawn) [Compound 4A, N-(4-methylcyclohexyl)-4-(4-(trifluoromethyl)piperidin-1-yl)aniline] was tested. Which EC50 did it give?
**A.** 0.1 to 100 nM

**Q.** Which EC50 does the source give for `CC(C)(C)c1ccc(NC2CCC(CCCCN)CC2)cc1` (stereo not drawn) [Compound 303, N-(4-(4-aminobutyl)cyclohexyl)-4-(tert-butyl)aniline] here?
**A.** 0.1 to 100 nM

**Q.** How did the EC50 turn out when `CN1CCC(Nc2ccc(N3CCC(C(F)(F)F)CC3)cc2)CC1=O` (stereo not drawn) [Compound 27, 1-methyl-4-((4-(4-(trifluoromethyl)piperidin-1-yl)phenyl)amino)piperidin-2-one] was run?
**A.** 100 to 1000 nM

**Q.** Which EC50 does the source give for `NC1CCC(Nc2ccc(F)cc2)CC1` (stereo not drawn) [Compound 134, N1-(4-fluorophenyl)cyclohexane-1,4-diamine] here?
**A.** 1000 to 10000 nM

**Q.** With `Cc1nc(N2C[C@@H](C)O[C@@H](C)C2)ccc1NC1CC2(CC(N)C2)C1` (stereo partly drawn) [Compound 488A, N2-(6-(2,6-dimethylmorpholino)-2-methylpyridin-3-yl)spiro[3.3]heptane-2,6-diamine] as the molecule, how does the EC50 read?
**A.** 0.1 to 100 nM

**Q.** Which EC50 does the source give for `CC1(C)CC(C)(C)c2cc(NC3CCC(N)CC3)ccc21` (stereo not drawn) [Compound 325A, N1-(1,1,3,3-tetramethyl-2,3-dihydro-1H-inden-5-yl)cyclohexane-1,4-diamine] here?
**A.** 0.1 to 100 nM

**Q.** `CC(C)(C)c1ccc(NCc2cnc[nH]2)cc1` [Compound 130, N-((1H-imidazol-5-yl)methyl)-4-(tert-butyl)aniline] was tested. Which EC50 did it give?
**A.** 100 to 1000 nM

**Q.** Which EC50 does the source give for `COCCOCCNc1ccc(C2CCC(C)(C)CC2)cc1` [Compound 79, 4-(4,4-dimethylcyclohexyl)-N-(2-(2-methoxyethoxy)ethyl)aniline] here?
**A.** 100 to 1000 nM

**Q.** `CCc1c(C)cc(NC2CCC(N)CC2)cc1C` (stereo not drawn) [Compound 281, N1-(4-ethyl-3,5-dimethylphenyl)cyclohexane-1,4-diamine] was tested. Which EC50 did it give?
**A.** 0.1 to 100 nM

**Q.** How did the EC50 turn out when `CC1(C)CCC(c2ccc(NC3CC(N)C3)cc2)CC1` (stereo not drawn) [Compound 94, N1-(4-(4,4-dimethylcyclohexyl)phenyl)cyclobutane-1,3-diamine] was run?
**A.** 0.1 to 100 nM

**Q.** Which EC50 does the source give for `CC1CC(C)CN(c2ncc(NC3CC4(CC(NC(=O)C(N)=O)C4)C3)cn2)C1` (stereo not drawn) [Compound 425, N1-(6-((2-(3,5-dimethylpiperidin-1-yl)pyrimidin-5-yl)amino)spiro[3.3]heptan-2-yl)oxalamide] here?
**A.** 0.1 to 100 nM

**Q.** How did the EC50 turn out when `CC(C)(C)c1ccc(NC2CCC(NCCCO)CC2)cc1` (stereo not drawn) [Compound 317, 3-((4-((4-(tert-butyl)phenyl)amino)cyclohexyl)amino)propan-1-ol] was run?
**A.** 0.1 to 100 nM

**Q.** Which EC50 does the source give for `CC1CCN(c2ncc(NC3CCC(N)CC3)cn2)CC1` (stereo not drawn) [Compound 44, N1-(2-(4-methylpiperidin-1-yl)pyrimidin-5-yl)cyclohexane-1,4-diamine] here?
**A.** 0.1 to 100 nM

**Q.** `CC(C)C1CCN(c2ncc(NC3C4CC5CC3CC(C(N)=O)(C5)C4)cn2)CC1` (stereo not drawn) [Compound 388, 4-((2-(4-isopropylpiperidin-1-yl)pyrimidin-5-yl)amino)adamantane-1-carboxamide] was tested. Which EC50 did it give?
**A.** 0.1 to 100 nM

**Q.** How did the EC50 turn out when `CC1(C)CCN(c2ccc(NC3CCC(N)CC3)cc2)CC1` (stereo not drawn) [Compound 62, N1-(4-(4,4-dimethylpiperidin-1-yl)phenyl)cyclohexane-1,4-diamine] was run?
**A.** 0.1 to 100 nM

**Q.** `CC1CN(c2ccc(NC3CCCCC3N)c(F)c2)CC(C)O1` (stereo not drawn) [Compound 441, N1-(4-(2,6-dimethylmorpholino)-2-fluorophenyl)cyclohexane-1,2-diamine] was tested. Which EC50 did it give?
**A.** 100 to 1000 nM

**Q.** Which EC50 does the source give for `CN(C)CCNC1CCC(Nc2ccc(C(C)(C)C)cc2)CC1` (stereo not drawn) [Compound 257] here?
**A.** 0.1 to 100 nM

**Q.** How did the EC50 turn out when `CC1(C)CCC(c2ccc(NC3CCC(CCNC(=O)[C@H]4CC(=O)NC(=O)N4)CC3)cc2)CC1` (stereo partly drawn) [Compound 244A, (R)—N-(2-(4-((4-(4,4-dimethylcyclohexyl)phenyl)amino)cyclohexyl)ethyl)-2,6-dioxohexahydro pyrimidine-4-carboxamide] was run?
**A.** 0.1 to 100 nM

**Q.** How did the EC50 turn out when `CCCc1ccc(NC2CCC(CN)CC2)cc1` (stereo not drawn) [Compound 291, N-(4-(aminomethyl)cyclohexyl)-4-propylaniline] was run?
**A.** 0.1 to 100 nM

**Q.** How did the EC50 turn out when `CC(C)Nc1ccc(N2CCC(C(F)(F)F)CC2)cc1` [Compound 7, N-isopropyl-4-(4-(trifluoromethyl)piperidin-1-yl)aniline] was run?
**A.** 0.1 to 100 nM

**Q.** `CC1(C)CCC(c2ccc(NC3CCNCC3)cc2)CC1` [Compound 131, N-(4-(4,4-dimethylcyclohexyl)phenyl)piperidin-4-amine] was tested. Which EC50 did it give?
**A.** 0.1 to 100 nM

**Q.** With `COc1cc(N2C[C@@H](C)O[C@@H](C)C2)ncc1NC1CC2(CC(N)C2)C1` (stereo partly drawn) [Compound 501, N^2-(6-((2R,6S)-2,6-dimethylmorpholino)-4-methoxypyridin-3-yl)spiro[3.3]heptane-2,6-diamine] as the molecule, how does the EC50 read?
**A.** 1000 to 10000 nM

**Q.** For `CC1(C)CCC(c2ccc(NCCCCN3CCCC3)cc2)CC1` [Compound 105, 4-(4,4-dimethylcyclohexyl)-N-(4-(pyrrolidin-1-yl)butyl)aniline], which EC50 is on record?
**A.** 0.1 to 100 nM

same assay, conditions: Homo sapiens, HT-1080, 20 h, ferroptosis inducer RSL3, 20 hours, ferroptosis inhibitory activity, Table 3

**Q.** Which EC50 does the source give for `Cc1nc(N2CC(C)OC(C(F)(F)F)C2)ccc1NC[C@H]1CC[C@@H](N)CC1` (stereo partly drawn) [Compound 598, N-(((1s,4s)-4-aminocyclohexyl)methyl)-2-methyl-6-(2-methyl-6-(trifluoromethyl)morpholino)pyridin-3-amine] here?
**A.** 0.1 to 100 nM

**Q.** `CCCNc1ccc2cc(NC3CC4(CC(N)C4)C3)ccc2c1` (stereo not drawn) [Compound 651, N^2-(6-aminospiro [3.3]heptan-2-yl)-N^6-propylnaphthalene-2,6-diamine] was tested. Which EC50 did it give?
**A.** 0.1 to 100 nM

**Q.** `Cc1nc(N2CC(C)OC(C)C2)ccc1NC1CCC2(CC1)CC(N)C2` (stereo not drawn) [Compound 624, N^7-(6-(2,6-dimethylmorpholino)-2-methylpyridin-3-yl)spiro[3.5]nonane-2,7-diamine] was tested. Which EC50 did it give?
**A.** 0.1 to 100 nM

**Q.** With `CC1CN(c2ccc3cc(NC4CC5(CC(N)C5)C4)ccc3c2)CCO1` (stereo not drawn) [Compound 648] as the molecule, how does the EC50 read?
**A.** 0.1 to 100 nM

**Q.** How did the EC50 turn out when `Cc1nc(N2CC[Si](C)(C)CC2)c(F)cc1NC1CC2(CC(N)C2)C1` (stereo not drawn) [Compound 638, N^2-(6-(4,4-dimethyl-1,4-azasilinan-1-yl)-5-fluoro-2-methylpyridin-3-yl)spiro[3.3]heptane-2,6-diamine] was run?
**A.** 0.1 to 100 nM

**Q.** Which EC50 does the source give for `Cc1cc(N2CC(C)(C)OC(C)(C)C2)ccc1NC1CC2(CC(N)C2)C1` (stereo not drawn) [Compound 628, N^2-(2-methyl-4-(2,2,6,6-tetramethylmorpholino)phenyl)spiro[3.3]heptane-2,6-diamine] here?
**A.** 0.1 to 100 nM

**Q.** How did the EC50 turn out when `Cc1nc(N2CCOC3(CCC3)C2)ccc1NC1CC2(CC(N)C2)C1` (stereo not drawn) [Compound 626, N^2-(2-methyl-6-(5-oxa-8-azaspiro[3.5]nonan-8-yl)pyridin-3-yl)spiro[3.3]heptane-2,6-diamine] was run?
**A.** 0.1 to 100 nM

**Q.** For `CCCc1nc(N2C[C@@H](C)O[C@@H](C)C2)ccc1NC1CC2(CC(N)C2)C1` (stereo partly drawn) [Compound 609, N2-(6-((2S, 6R)-2,6-dimethylmorpholino)-2-propylpyridin-3-yl)spiro[3.3]heptane-2,6-diamine], which EC50 is on record?
**A.** 0.1 to 100 nM

same assay, conditions: ferroptosis inducer RSL3, 20 hours, ferroptosis inhibitory activity, Table 2

**Q.** For `CCC(C)c1ccc(NC2CCC(N)CC2)cc1` (single isomer, unassigned) [Compound 289B, 1-N-(4-(sec-butyl)phenyl)cyclohexane-1,4-diamine], which EC50 is on record?
**A.** 100 to 1000 nM

**Q.** `Cc1nc(N2CC(C)OC(C)C2)c(F)cc1NC1C2CC3CC1CC(CN)(C3)C2` (single isomer, unassigned) [Compound 539B, N-((2r,5s)-5-(aminomethyl)adamantan-2-yl)-6-(2,6-dimethylmorpholino)-5-fluoro-2-methylpyridin-3-amine] was tested. Which EC50 did it give?
**A.** 100 to 1000 nM
